Drawing on PubChem BioAssay AID1671426, this text covers IC50 for 1 molecule.

pIC50: −log10 of the molar value.

The target of this assay is Proto-oncogene tyrosine-protein kinase Src (Homo sapiens) (UniProt P12931). Nature of the assay: PubChem AID 1671426. As to conditions: Z'-LYTE FRET kinase activity, recombinant SRC N1.
Chain of Proto-oncogene tyrosine-protein kinase Src (Homo sapiens) (P12931 whole entry, looked up): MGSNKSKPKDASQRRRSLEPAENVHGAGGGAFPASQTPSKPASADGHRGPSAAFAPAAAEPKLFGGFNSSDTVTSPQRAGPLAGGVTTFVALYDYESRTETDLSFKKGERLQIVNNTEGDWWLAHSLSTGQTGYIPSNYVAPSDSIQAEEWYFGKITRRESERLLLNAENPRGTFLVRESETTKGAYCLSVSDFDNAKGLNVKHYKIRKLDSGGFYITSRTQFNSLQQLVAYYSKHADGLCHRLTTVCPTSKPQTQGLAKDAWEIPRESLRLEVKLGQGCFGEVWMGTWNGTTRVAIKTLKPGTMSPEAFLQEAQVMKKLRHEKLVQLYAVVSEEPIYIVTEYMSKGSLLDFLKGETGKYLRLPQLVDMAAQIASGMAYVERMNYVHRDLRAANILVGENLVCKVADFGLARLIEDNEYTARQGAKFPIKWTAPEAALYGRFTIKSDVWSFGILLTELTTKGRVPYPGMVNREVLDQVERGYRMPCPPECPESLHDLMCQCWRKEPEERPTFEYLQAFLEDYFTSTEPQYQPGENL

As a reminder, the pIC50 is −log10 of the IC50, conventionally taken in molar units. For the molecule `COc1cc2ncnc(Nc3cccc(Cl)c3)c2cc1OC`, the pIC50 is 5.70.
